From US10611750B2, “Tetrahydroquinoline compositions as bet bromodomain inhibitors” (FORMA Therapeutics, Inc., priority 2013, dated 2020) come the findings set out here.

The structures appear in SMILES notation. pIC50: −log10 of the molar value. Read-outs that look alike come from different tables or passages of the source.

In assay [1] the test system is acute myelocytic leukemia (AML) cell line MV4-11. The experiment in a line: Oncology cell growth assay (3-day proliferation, CellTiter-Glo). As to conditions: Homo sapiens, MV4-11 cells, 3000 cells/well, compounds listed under IC50 range headings, read-out: MV411 IC50 (gIC50, inhibition of proliferation). The format is cell-based. In short, it runs like this:
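MV4-11 AML cells (RPMI 1640, 10% FBS) plated at 3000 cells/well and exposed 72 h to compound at final 10 to 0.0045 μM (3-fold series). Viability read by CellTiter-Glo luminescence; gIC50 from four-parameter logistic fit between DMSO control and no-cell background.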
For orientation: Cellular ATP, detected with luciferase, serves as a proxy for viable cell number.

Assay [2] addresses T1, BRD4 Bromodomain 2 (BRD4 BD2) (Homo sapiens, UniProt O60885).
T1 construct: 333-460 were cloned, expressed, and purified to homogeneity
Description: AlphaScreen binding assay, BRD4 BD2. As to conditions: His-tagged BRD4 BD2 100 nM, biotinylated H4 (1-21) K5/8/12/16 tetra-acetylated peptide 100 nM, compounds listed under IC50 range headings. In short, it runs like this: (§1)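 An AlphaScreen competition format was used with His-BRD4 BD1 or BD2 and biotin-H4 K5/8/12/16-acetyl peptide, each at matched final levels of 50 nM (BD1) or 100 nM (BD2). Incubation in HEPES/NaCl buffer with 0.1% BSA and 0.01% Triton X-100 ran ≥1 h before IC50 determination.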

The target of assay [3] is T2, BRD4 Bromodomain 1 (BRD4 BD1) (Homo sapiens, UniProt O60885).
T2 construct: 44-168 and BRD4 BD2
The experiment in a line: AlphaScreen binding assay, BRD4 BD1. As to conditions: His-tagged BRD4 BD1 50 nM, biotinylated H4 (1-21) K5/8/12/16 tetra-acetylated peptide 50 nM, compounds listed under IC50 range headings. In short, it runs like this:
as §1
In general terms: Alpha assays give light when donor and acceptor beads are brought close together.

In the case of `CC(=O)N1c2ccc(-c3cnn(C4CC4)c3)c(Oc3ccc(C)cn3)c2CC[C@@H]1C` [I-287, (S)-1-(6-(1-cyclopropyl-1H-pyrazol-4-yl)-2-methyl-5-(5-methylpyridin-2-yloxy)-3,4-dihydroquinolin-1(2H)-yl)ethanone], the pIC50 in assay [1] (MV4-11, 72 h) was greater than 6.30; in assay [2], greater than 7.30; in assay [3], 6.00 to 7.00.
On the same counts, the results for `CC(=O)N1c2ccc(-c3cnn(C4CC4)c3)c(Oc3ccc(Cl)cn3)c2CC[C@@H]1C` [I-288, (S)-1-(5-(5-chloropyridin-2-yloxy)-6-(1-cyclopropyl-1H-pyrazol-4-yl)-2-methyl-3,4-dihydroquinolin-1(2H)-yl)ethanone] are greater than 6.30, greater than 7.30 and 6.00 to 7.00.
For `CC(=O)N1c2ccc(-c3cnn(C4CC4)c3)c(Oc3ncc4[nH]cnc4n3)c2CC[C@@H]1C` [I-289, (S)-1-(5-(7H-purin-2-yloxy)-6-(1-cyclopropyl-1H-pyrazol-4-yl)-2-methyl-3,4-dihydroquinolin-1(2H)-yl)ethanone] the same measures were 6.00 to 6.30, 6.30 to 7.30 and 5.00 to 6.00.
On the same counts, the results for `C/C=C/n1c(Oc2c(-c3cnn(C4CC4)c3)ccc3c2CC[C@H](C)N3C(C)=O)nc2ccccc21` [I-351, (S,E)-1-(6-(1-cyclopropyl-1H-pyrazol-4-yl)-2-methyl-5-(1-(prop-1-enyl)-1H-benzo[d]imidazol-2-yloxy)-3,4-dihydroquinolin-1(2H)-yl)ethanone] are greater than 6.30, greater than 7.30 and 5.00 to 6.00.
Take `CCCOc1c(C2CCNCC2)ccc2c1CC[C@H](C)N2C(C)=O` [I-353, (S)-1-(2-methyl-6-(piperidin-4-yl)-5-propoxy-3,4-dihydroquinolin-1(2H)-yl)ethan-1-one]: the pIC50 in assay [1] (MV4-11, 72 h) is less than 6.00; in assay [2], no more than 6.30; in assay [3] it was no more than 5.00.
On the same counts, the results for `CCCOc1c(C2CCN(C(C)=O)CC2)ccc2c1CC[C@H](C)N2C(C)=O` [I-354, (S)-1-(4-(1-acetyl-2-methyl-5-propoxy-1,2,3,4-tetrahydroquinolin-6-yl)piperidin-1-yl)ethan-1-one] are less than 6.00, no more than 6.30 and no more than 5.00.
For `CCCOc1c(C2CCN(S(C)(=O)=O)CC2)ccc2c1CC[C@H](C)N2C(C)=O` [I-355, (S)-1-(2-methyl-6-(1-(methylsulfonyl)piperidin-4-yl)-5-propoxy-3,4-dihydroquinolin-1 (2H)-yl)ethan-1-one] the same measures were less than 6.00, no more than 6.30 and no more than 5.00.
For `CCCOc1c(C2CCN(C(=O)NCC)CC2)ccc2c1CC[C@H](C)N2C(C)=O` [I-356, (S)-4-(1-acetyl-2-methyl-5-propoxy-1,2,3,4-tetrahydroquinolin-6-yl)-N-ethylpiperidine-1-carboxamide] the same measures were less than 6.00, 6.30 to 7.30 and no more than 5.00.
For `CCCOc1c(C2CCN(C(=O)OC)CC2)ccc2c1CC[C@H](C)N2C(C)=O` [I-357, methyl (S)-4-(1-acetyl-2-methyl-5-propoxy-1,2,3,4-tetrahydroquinolin-6-yl)piperidine-1-carboxylate], the pIC50 in assay [1] (72 hours) was less than 6.00; in assay [2], no more than 6.30; in assay [3], no more than 5.00.
With `CCCOc1c(C2CCN(CC)CC2)ccc2c1CC[C@H](C)N2C(C)=O` [I-358, (S)-1-(6-(1-ethylpiperidin-4-yl)-2-methyl-5-propoxy-3,4-dihydroquinolin-1(2H)-yl)ethan-1-one], the pIC50 in assay [1] (MV4-11, 72 h) was less than 6.00; in assay [2], no more than 6.30; in assay [3], no more than 5.00.
In the case of `CC(=O)N1c2ccc(-c3cnn(C4CCNCC4)c3)c(Nc3ccccc3)c2CC[C@@H]1C` [I-359, (S)-1-(2-methyl-5-(phenylamino)-6-(1-(piperidin-4-yl)-1H-pyrazol-4-yl)-3,4-dihydroquinolin-1(2H)-yl)ethan-1-one], the results for the pIC50 in assay [1] (72 hours), in assay [2] and in assay [3] were greater than 6.30, 6.30 to 7.30 and 5.00 to 6.00, respectively.
Consider `COC(=O)N1c2ccc(-c3cnn([C@@H]4CCNC[C@@H]4F)c3)c(OC3CCC3)c2CC[C@@H]1C` [I-361, methyl (S)-5-cyclobutoxy-6-(1-((3S,4R)-3-fluoropiperidin-4-yl)-1H-pyrazol-4-yl)-2-methyl-3,4-dihydroquinoline-1(2H)-carboxylate], for which the pIC50 was greater than 6.30 in assay [1] (MV4-11, 72 h); greater than 7.30 in assay [2]; greater than 7.00 in assay [3].
On the same counts, the results for `COC(=O)N1c2ccc(-c3cnn([C@H]4CCNC[C@H]4F)c3)c(OC3CCC3)c2CC[C@@H]1C` [I-362, methyl (2S)-5-cyclobutoxy-6-{1-[(3R,4S)-3-fluoropiperidin-4-yl]-1H-pyrazol-4-yl}-2-methyl-1,2,3,4-tetrahydroquinoline-1-carboxylate] are greater than 6.30, greater than 7.30 and 6.00 to 7.00.
On to `COC(=O)N1c2ccc(-c3cnn([C@H]4CCNC[C@@H]4F)c3)c(OC3CCC3)c2CC[C@@H]1C` [I-363, methyl (2S)-5-cyclobutoxy-6-{1-[(3S,4S)-3-fluoropiperidin-4-yl]-1H-pyrazol-4-yl}-2-methyl-1,2,3,4-tetrahydroquinoline-1-carboxylate], for which the pIC50 in assay [1] (MV4-11, 72 h) was greater than 6.30; in assay [2], greater than 7.30; in assay [3], 6.00 to 7.00.
Regarding `COC(=O)N1c2ccc(-c3cnn([C@H]4CCNC[C@@H]4F)c3)c(Oc3ccc(F)cc3)c2CC[C@@H]1C` [I-364, methyl (2S)-5-(4-fluorophenoxy)-6-{1-[(3S,4S)-3-fluoropiperidin-4-yl]-1H-pyrazol-4-yl}-2-methyl-1,2,3,4-tetrahydroquinoline-1-carboxylate], the pIC50 is greater than 6.30 in assay [1] (MV4-11, 72 h); greater than 7.30 in assay [2]; 6.00 to 7.00 in assay [3].
On the same counts, the results for `COC(=O)N1c2ccc(-c3cnn([C@@H]4CCNC[C@@H]4F)c3)c(Oc3ccc(F)cc3)c2CC[C@@H]1C` [I-365, methyl (2 S)-5-(4-fluorophenoxy)-6-{1-[(3S,4R)-3-fluoropiperidin-4-yl]-1H-pyrazol-4-yl}-2-methyl-1,2,3,4-tetrahydroquinoline-1-carboxylate] are greater than 6.30, greater than 7.30 and 6.00 to 7.00.
In the case of `COC(=O)N1c2ccc(-c3cnn([C@H]4CCNC[C@H]4F)c3)c(Oc3ccc(F)cc3)c2CC[C@@H]1C` [I-366, methyl (2 S)-5-(4-fluorophenoxy)-6-{1-[(3R,4S)-3-fluoropiperidin-4-yl]-1H-pyrazol-4-yl}-2-methyl-1,2,3,4-tetrahydroquinoline-1-carboxylate], the pIC50 is greater than 6.30 in assay [1] (MV4-11, 72 h); greater than 7.30 in assay [2]; 6.00 to 7.00 in assay [3].
For `CC(=O)N1c2ccc(-c3cnn(C4CC4)c3)c(OCCNS(C)(=O)=O)c2CC[C@@H]1C` [I-382] the same measures were 6.00 to 6.30, 6.30 to 7.30 and 6.00 to 7.00.
Consider `CC(=O)N1c2ccc(-c3cnn(C4CC4)c3)c(OCC3CCCC3)c2CC[C@@H]1C` [I-385], for which the pIC50 is greater than 6.30 in assay [1] (MV4-11, 72 h); greater than 7.30 in assay [2]; greater than 7.00 in assay [3].
With `CCCOc1c(-c2cnn(C3CC3)c2)ccc2c1CC[C@H](C)N2C(C)=O` [I-387], the pIC50 in assay [1] (MV4-11, 72 h) was greater than 6.30; in assay [2] it was greater than 7.30; in assay [3] it was 6.00 to 7.00.
Consider `CC(=O)N1c2ccc(-c3cnn(C4CC4)c3)c(OC(C)C)c2CC[C@@H]1C` [I-388], for which the pIC50 in assay [1] (MV4-11, 72 h) is 6.00 to 6.30; in assay [2], 6.30 to 7.30; in assay [3], 6.00 to 7.00.
On the same counts, the results for `CC(=O)N1c2ccc(-c3cnn(C4CC4)c3)c(OC3CCC3)c2CC[C@@H]1C` [I-389] are greater than 6.30, greater than 7.30 and 6.00 to 7.00.
On to `CC(=O)N1c2ccc(-c3cnn(C4CC4)c3)c(OCC3CC3)c2CC[C@@H]1C` [I-390], for which the pIC50 in assay [1] (MV4-11, 72 h) is greater than 6.30; in assay [2] it was greater than 7.30; in assay [3] it was 6.00 to 7.00.
With `CC(=O)N1c2ccc(-c3cnn(C4CC4)c3)c(OCC3CCC3)c2CC[C@@H]1C` [I-392], the pIC50 is greater than 6.30 in assay [1] (MV4-11, 72 h); 6.30 to 7.30 in assay [2]; 6.00 to 7.00 in assay [3].
For the molecule `CC(=O)N1c2ccc(-c3cnn(C4CC4)c3)c(OCC3(C)COC3)c2CC[C@@H]1C` [I-395], the pIC50 in assay [1] (MV4-11, 72 h) was 6.00 to 6.30; in assay [2] it was 6.30 to 7.30; in assay [3], 6.00 to 7.00.
On the same counts, the results for `CC(=O)N1c2ccc(-c3cnn(C4CC4)c3)c(OC3CCCC3)c2CC[C@@H]1C` [I-396] are greater than 6.30, greater than 7.30 and 6.00 to 7.00.
As to `COCCOc1c(-c2cnn(C3CC3)c2)ccc2c1CC[C@H](C)N2C(C)=O` [I-398], the pIC50 is 6.00 to 6.30 in assay [1] (MV4-11, 72 h); 6.30 to 7.30 in assay [2]; 6.00 to 7.00 in assay [3].
For `CC(=O)N1c2ccc(-c3cnn(C4CC4)c3)c(OCC3CCOCC3)c2CC[C@@H]1C` [I-400] the same measures were greater than 6.30, 6.30 to 7.30 and 6.00 to 7.00.
For the molecule `CC(=O)N1c2ccc(-c3cnn(C4CC4)c3)c(OCC(=O)N(C)C)c2CC[C@@H]1C` [I-401], the pIC50 in assay [1] (MV4-11, 72 h) is greater than 6.30; in assay [2], greater than 7.30; in assay [3], 6.00 to 7.00.
